IC50 data for 28 molecules are collected here from patent US10370343B2, “[6,6] Fused bicyclic HDAC8 inhibitors” (FORMA Therapeutics, Inc., priority 2015, dated 2019).

One test addresses T1, Full length human recombinant HDAC8 protein (Homo sapiens, UniProt Q9BY41).
T1 construct: Full length human recombinant HDAC8 protein was expressed in baculoviral system; made in house
T1 sequence (Q9BY41 1-377): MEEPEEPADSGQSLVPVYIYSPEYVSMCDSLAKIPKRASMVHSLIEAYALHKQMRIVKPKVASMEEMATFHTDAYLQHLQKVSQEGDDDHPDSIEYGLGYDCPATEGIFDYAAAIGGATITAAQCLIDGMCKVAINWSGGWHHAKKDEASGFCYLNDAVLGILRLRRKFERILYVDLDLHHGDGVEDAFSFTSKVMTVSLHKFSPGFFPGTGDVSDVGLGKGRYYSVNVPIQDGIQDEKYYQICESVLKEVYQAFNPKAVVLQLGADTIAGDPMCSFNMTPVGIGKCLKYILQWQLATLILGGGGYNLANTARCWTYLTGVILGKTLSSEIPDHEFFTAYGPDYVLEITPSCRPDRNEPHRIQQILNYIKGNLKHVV
Briefly: In vitro histone deacetylase assay: enzymatic HDAC8 electrophoretic mobility shift assay.
Settings: not given
Type of test: biochemical. As for the experimental part: The enzymatic HDAC8 assay was performed using electrophoretic mobility shift assay. Full length human recombinant HDAC8 protein was expressed in baculoviral system and purified by affinity chromatography. The enzymatic reactions were assembled in 384 well plates in a total volume of 25 μL in a reaction buffer composing: 100 mM HEPES, pH7.5, 25 mM KCl, 0.1% bovine serum albumin, 0.01% Triton X-100, 1% DMSO (from compounds) 2 μM of the fluorescently labeled peptide substrate and enzyme. The enzyme was added at a final concentration of 1 nM. The peptide substrate RHKK(Ac)—NH2 was used. The compounds were tested at 12 concentrations spaced by 3× dilution intervals. Negative control samples (0%-inhibition in the absence of inhibitor) and positive control samples (100%-inhibition) were assembled in replicates of four in each assay plate. The reactions were incubated at 25° C. and quenched by the addition of 45 μL of termination buffer (100 mM HEPES, pH 7.5, 0.01% Triton X-100, 0.05% SDS).
The terminated assay plates were analyzed on LabChip® 3000 microfluidic electrophoresis instrument (Perkin Elmer/Caliper Life Sciences). The fluorescence intensity of the electrophoretically separated de-acetylated product and substrate peptide was measured. Activity in each sample was determined as the product to sum ratio (PSR): P/(S+P), where P is the peak height of the product peptide and S is the peak height of the substrate peptide. Percent inhibition (Pinh) is determined using the following equation: Pinh=(PSR0%−PSRinh)/(PSR0%−PSR100%)*100, where PSRinh is the product sum ratio in the presence of inhibitor, PSR0% is the average product sum ration in the absence of inhibitor and PSR100% is the average product sum ratio in 100%-inhibition control samples. The IC50 values of inhibitors were determined by fitting the %-inhibition curves with 4 parameter dose-response model using XLfit 4 software.
As for `CN(C(=O)CN1C(=O)COc2ccc(C(=O)NO)cc21)C1CC1` [Compound I-51, 4-(2-(cyclopropyl(methyl)amino)-2-oxoethyl)-N-hydroxy-3-oxo-3,4-dihydro-2H-benzo[b][1,4]oxazine-6-carboxamide], the 50% inhibitory concentration (IC50) was in the range of 0.1 to 1 µM.

Still in this test, the particulars now being: electrophoretic mobility shift assay; enzyme 1 nM; 2 μM fluorescently labeled peptide substrate RHKK(Ac)-NH2; 25° C.; 12 concentrations; read-out: HDAC8 IC50.
Regarding `C=C(C)CN1CCOc2ccc(C(=O)NO)cc21` [Compound I-22, N-hydroxy-4-(2-methylallyl)-3,4-dihydro-2H-benzo[b][1,4]oxazine-6-carboxamide], the IC50 was 0.1 to 1 µM. For the molecule `O=C(NO)c1ccc2c(c1)N(Cc1c(Cl)cccc1Cl)CCO2` [Compound I-23, 4-(2,6-dichlorobenzyl)-N-hydroxy-3,4-dihydro-2H-benzo[b][1,4]oxazine-6-carboxamide], the IC50 lay in the range of 0.1 to 1 µM. On to `O=C(NO)c1ccc2c(c1)N(Cc1cccc(F)c1)CCO2` [Compound I-24, 4-(3-fluorobenzyl)-N-hydroxy-3,4-dihydro-2H-benzo[b][1,4]oxazine-6-carboxamide], for which the IC50 was < 0.025 µM.

Consider `O=C(NO)c1ccc2c(c1)N(Cc1ccccc1OC(F)(F)F)CCO2` [Compound I-25, N-hydroxy-4-(2-(trifluoromethoxy)benzyl)-3,4-dihydro-2H-benzo[b][1,4]oxazine-6-carboxamide], for which the IC50 fell in the range of 0.1 to 1 µM. Take `O=C(NO)c1ccc2c(c1)N(CC(=O)N1CCOCC1)CCO2` [Compound I-26, N-hydroxy-4-(2-morpholino-2-oxoethyl)-3,4-dihydro-2H-benzo[b][1,4]oxazine-6-carboxamide]: the IC50 is > 1 µM. The same measure, in the same setting: the value for `CC(C)n1c(CN2CCOc3ccc(C(=O)NO)cc32)nc2ccccc21` [Compound I-28, N-hydroxy-4-((1-isopropyl-1H-benzo[d]imidazol-2-yl)methyl)-3,4-dihydro-2H-benzo[b][1,4]oxazine-6-carboxamide] was > 1 µM; that for `COCCn1c(CN2CCOc3ccc(C(=O)NO)cc32)nc2ccccc21` [Compound I-29, N-hydroxy-4-((1-(2-methoxyethyl)-1H-benzo[d]imidazol-2-yl)methyl)-3,4-dihydro-2H-benzo[b][1,4]oxazine-6-carboxamide] was 0.1 to 1 µM; that for `O=C(NO)c1ccc2c(c1)N(Cc1nc3ccccc3n1CC1CC1)CCO2` [Compound I-30, 4-((1-(cyclopropylmethyl)-1H-benzo[d]imidazol-2-yl)methyl)-N-hydroxy-3,4-dihydro-2H-benzo[b][1,4]oxazine-6-carboxamide] was 0.1 to 1 µM. For `O=C(NO)c1ccc2c(c1)N(Cc1ccccc1)C(=O)CO2` [Compound I-32, 4-benzyl-N-hydroxy-3-oxo-3,4-dihydro-2H-benzo[b][1,4]oxazine-6-carboxamide], the IC50 was in the range of 0.025 to 0.1 µM.

For `O=C(NO)c1ccc2c(c1)N(CCc1ccc(Cl)cc1)C(=O)CO2` [Compound I-34, 4-(4-chlorophenethyl)-N-hydroxy-3-oxo-3,4-dihydro-2H-benzo[b][1,4]oxazine-6-carboxamide], the IC50 lay within 0.025 to 0.1 µM.

`O=C(NO)c1ccc2c(c1)N(Cc1ccc(C(F)(F)F)cc1)C(=O)CO2` [Compound I-35, N-hydroxy-3-oxo-4-(4-(trifluoromethyl)benzyl)-3,4-dihydro-2H-benzo[b][1,4]oxazine-6-carboxamide]: the IC50 is < 0.025 µM.

On to `CCCN1C(=O)COc2ccc(C(=O)NO)cc21` [Compound I-39, N-hydroxy-3-oxo-4-propyl-3,4-dihydro-2H-benzo[b][1,4]oxazine-6-carboxamide], for which the IC50 lay in the range of 0.1 to 1 µM. On to `C#CCN1C(=O)COc2ccc(C(=O)NO)cc21` [Compound I-40, N-hydroxy-3-oxo-4-(prop-2-yn-1-yl)-3,4-dihydro-2H-benzo[b][1,4]oxazine-6-carboxamide], for which the IC50 was 0.1 to 1 µM. Regarding `C=CCN1C(=O)COc2ccc(C(=O)NO)cc21` [Compound I-41, 4-allyl-N-hydroxy-3-oxo-3,4-dihydro-2H-benzo[b][1,4]oxazine-6-carboxamide], the IC50 lay within 0.1 to 1 µM. As to `O=C(NO)c1ccc2c(c1)N(C1CCCC1)C(=O)CO2` [Compound I-42, 4-cyclopentyl-N-hydroxy-3-oxo-3,4-dihydro-2H-benzo[b][1,4]oxazine-6-carboxamide], the IC50 lay within 0.1 to 1 µM. Take `COCCN1C(=O)COc2ccc(C(=O)NO)cc21` [Compound I-43, N-hydroxy-4-(2-methoxyethyl)-3-oxo-3,4-dihydro-2H-benzo[b][1,4]oxazine-6-carboxamide]: the IC50 was 0.1 to 1 µM.

With `CC(C)=CCCN1C(=O)COc2ccc(C(=O)NO)cc21` [Compound I-44, N-hydroxy-4-(4-methylpent-3-en-1-yl)-3-oxo-3,4-dihydro-2H-benzo[b][1,4]oxazine-6-carboxamide], the IC50 was in the range of 0.025 to 0.1 µM.

`CCC(C)N1C(=O)COc2ccc(C(=O)NO)cc21` (stereo not shown) [Compound I-46, 4-(sec-butyl)-N-hydroxy-3-oxo-3,4-dihydro-2H-benzo[b][1,4]oxazine-6-carboxamide]: the half-maximal inhibitory concentration (IC50) is 0.1 to 1 µM.

For the molecule `O=C(NO)c1ccc2c(c1)N(CC1CCOCC1)C(=O)CO2` [Compound I-48, N-hydroxy-3-oxo-4-((tetrahydro-2H-pyran-4-yl)methyl)-3,4-dihydro-2H-benzo[b][1,4]oxazine-6-carboxamide], the IC50 lay in the range of 0.1 to 1 µM. In the case of `O=C(NO)c1ccc2c(c1)N(CC1CCS(=O)(=O)CC1)C(=O)CO2` [Compound I-49, 4-((1,1-dioxidotetrahydro-2H-thiopyran-4-yl)methyl)-N-hydroxy-3-oxo-3,4-dihydro-2H-benzo[b][1,4]oxazine-6-carboxamide], the IC50 was 0.1 to 1 µM. As for `O=C(NO)c1ccc2c(c1)N(CCN1CCCS1(=O)=O)C(=O)CO2` [Compound I-52, 4-(2-(1,1-dioxidoisothiazolidin-2-yl)ethyl)-N-hydroxy-3-oxo-3,4-dihydro-2H-benzo[b][1,4]oxazine-6-carboxamide], the concentration for half-maximal inhibition (IC50) was 0.1 to 1 µM. Still for that read-out and setting: the value for `O=C(NO)c1ccc2c(c1)N(CCOc1ccc(C(F)(F)F)cc1)C(=O)CO2` [Compound I-55, N-hydroxy-3-oxo-4-(2-(4-(trifluoromethyl)phenoxy)ethyl)-3,4-dihydro-2H-benzo[b][1,4]oxazine-6-carboxamide] was 0.025 to 0.1 µM.

Take `CN(C)S(=O)(=O)c1ccc(OCCN2C(=O)COc3ccc(C(=O)NO)cc32)cc1` [Compound I-56, 4-(2-(4-(N,N-dimethylsulfamoyl)phenoxy)ethyl)-N-hydroxy-3-oxo-3,4-dihydro-2H-benzo[b][1,4]oxazine-6-carboxamide]: the IC50 lay in the range of 0.025 to 0.1 µM. With `CC(C)CN1C(=O)COc2ccc(C(=O)NO)cc21` [Compound I-57, N-hydroxy-4-isobutyl-3-oxo-3,4-dihydro-2H-benzo[b][1,4]oxazine-6-carboxamide], the IC50 lay in the range of 0.1 to 1 µM. For the molecule `O=C(NO)c1ccc2c(c1)N(Cc1ccccn1)C(=O)CO2` [Compound I-61, N-hydroxy-3-oxo-4-(pyridin-2-ylmethyl)-3,4-dihydro-2H-benzo[b][1,4]oxazine-6-carboxamide], the IC50 fell in the range of 0.1 to 1 µM.

On to `COc1ccccc1CN1C(=O)COc2ccc(C(=O)NO)cc21` [Compound I-63, N-hydroxy-4-(2-methoxybenzyl)-3-oxo-3,4-dihydro-2H-benzo[b][1,4]oxazine-6-carboxamide], for which the IC50 lay in the range of 0.1 to 1 µM.

On to `O=C(NO)c1ccc2c(c1)N(Cc1ccccc1C(F)(F)F)C(=O)CO2` [Compound I-65, N-hydroxy-3-oxo-4-(2-(trifluoromethyl)benzyl)-3,4-dihydro-2H-benzo[b][1,4]oxazine-6-carboxamide], for which the IC50 lay in the range of 0.1 to 1 µM.
